For data set [1] the following is noted: cited from earlier work.
Data set [2] can be described thus: XRPD of stressed pioglitazone HCl binary/acidified compacts (free base formation). It is filed as physicochemical. The conditions noted are these: for Inhibition of disproportionation via acidification (Table 6 and FIGS. 2 and 3): organic acid in a 1:1 weight ratio with the carboxylate excipient, NIR and XRPD; for Inhibition of disproportionation by organic acid (XRPD, FIG. 2): pioglitazone HCl compacts containing MgSt with organic acids, 40° C./75% RH open dish. As to the method: (§1) An understanding of pioglitazone HCl salt disproportionation was obtained by studying each excipient individually. All of the API and excipient powders were gravimetrically dispensed into 1-dram glass vials using the Symyx Powdernium powder dispensing robot. Binary mixtures containing 250 mg of pioglitazone HCl salt and approximately 30 mg of the excipients were dispensed to create a 9:1 weight ratio mixture. Pharmaceutically relevant formulation matrix samples, or pseudo formulations, were also prepared. The compact target weight was 280 mg with a final composition of 45% of pioglitazone HCl salt, 25% avicel, 25% mannitol and 5% of the remaining excipients.
(§2) Upon completion of the powder dispensing, the vials were removed from the robot and mixed using a Resodyn Acoustic Mixer (LabRAM). The powders were mixed for 30 seconds at 30% intensity to produce homogeneous mixtures. The powders were then poured from the DRAM vial into a ½ inch die. A single compact from each DRAM vial was manually compressed using a compression force of 2000-3000 lbs and a dwell time of 5 seconds. Compacts were stressed at 40° C./35% RH and 40° C./75% RH. The sample preparation and reference for each compact can be seen in Table 2.
XRPD spectroscopy was also used to quantify the level of disproportionation in selected stressed samples of pioglitazone HCl. XRPD Spectroscopy is more sensitive to free base than NIR, making it suitable for samples with little or no disproportionation. The XRPD spectra were collected on the Panalytical X'pert Pro diffractometer with Cu Ka1 radition of 1.5406 Å in the transmission mode. The samples were scanned between a two theta range of 4 and 20° at a step size of 0.0167° for one hour at ambient conditions. The tube power used was 45 kV and 40 mA. In the XRPD pattern, the pioglitazone crystalline free base form has four specific peaks at 7.8weak, 9.1strong, 10.3strong and 15.1moderate 2-theta. The pioglitazone HCl form has a doublet peak centered at 8.6 2-theta.

The conditions of data set [3]: aqueous; cited from earlier work.
A short description of data set [4]: FT-NIR monitoring of loss of HCl salt in stressed pioglitazone HCl binary/acidified compacts. The conditions noted are these: MgSt and organic acid compacts, 40° C./75% RH open dish. The class given is physicochemical. As to the method: as §1, §2
FT-NIR reflectance spectroscopy was used to monitor the loss of HCl salt throughout the binary and pseudo formulation studies. […]

These results are taken from US9339543B2, “Pharmaceutical compositions that inhibit disproportionation” (Merck Sharp & Dohme Corp., priority 2011, dated 2016).

For the compound Citric Acid, in data set [1], the “pKa Values (first value)” value was 3.2 and the “pKa Values (second value)” value is 4.8. For the same compound, in data set [1] (third pKa printed in cell), the “pKa Values (third value)” value is given as 6.4. Also, in data set [2], the “Inhibition of disproportionation via acidification (Table 6 and FIGS. 2 and 3)” value (shortened to “Inhibition … (Table 6 and FIGS. 2 and 3)”) was “not effective in inhibiting disproportionation”; the “Inhibition of disproportionation by organic acid (XRPD, FIG. 2)” value (“Inhibition … (XRPD, FIG. 2)” below) is “do not effectively inhibit disproportionation”.
On to `O=C(O)/C=C/C(=O)O` [Fumaric Acid], for which, in data set [1], the “pKa Values (first value)” value is given as 3.0. The “Aq. Sol.” value in data set [3] is 0.0063 g/mL. For the same compound, in data set [2], the “Inhibition … (Table 6 and FIGS. 2 and 3)” value is “not effective in inhibiting disproportionation”; the “Inhibition … (XRPD, FIG. 2)” value is on record as “do not effectively inhibit disproportionation”.
In the case of `O=C(O)C(O)C(O)C(=O)O` (stereo not shown) [Tartaric Acid], in data set [1], the “pKa Values (first value)” value is recorded as 3.0 and the “pKa Values (second value)” value was 4.2. The “Inhibition of disproportionation by organic acid (NIR, Table 6)” value in data set [4] is “could inhibit disproportionation”. The “Aq. Sol.” value in data set [3] is listed as 1.3 g/mL. Moreover, in data set [2], the “Inhibition … (Table 6 and FIGS. 2 and 3)” value is “completely inhibited”; the “Inhibition … (XRPD, FIG. 2)” value is recorded as “successfully inhibit disproportionation”.
In the case of `O=C(O)C(=O)O` [Oxalic Acid], in data set [1], the “pKa Values (first value)” value was 1.25 and the “pKa Values (second value)” value was 4.14. For the same compound, the “Aq. Sol.” value in data set [3] was 0.14 g/mL. For the same compound, in data set [2], the “Inhibition … (Table 6 and FIGS. 2 and 3)” value is given as “not effective in inhibiting disproportionation”; the “Inhibition … (XRPD, FIG. 2)” value is on record as “do not effectively inhibit disproportionation”.
As to `O=C(O)/C=C\C(=O)O` [Maleic Acid], the “pKa Values (second value)” value in data set [1] is 6.3. In data set [4], the “Inhibition of disproportionation by organic acid (NIR, Table 6)” value was “could inhibit disproportionation”. In data set [3], the “Aq. Sol.” value is 0.78 g/mL. In data set [2], the “Inhibition … (Table 6 and FIGS. 2 and 3)” value was “completely inhibited”; the “Inhibition … (XRPD, FIG. 2)” value was “successfully inhibit disproportionation”.
